Five compounds from ChEMBL document CHEMBL4251574, “Design, synthesis, and biological evaluation of new 1,2,3-triazolo-2'-deoxy-2'-fluoro- 4'-azido nucleoside derivatives as potent anti-HBV agents” (Eur J Med Chem, 2018) can be followed below.

The test system of experiment [1] is Hepatitis B virus. Description: Antiviral activity against Hepatitis B virus infected in human HepG2.2.15 cells assessed as inhibition of HBeAg secretion at 5 uM after 9 days by ELISA relative to control. The experiment is classed as functional. To be noted: HepG2.2.15, 216 h.
The next experiment concerns HepG2 2.2.15. The experiment in a line: Cytotoxicity against human HepG2.2.15 cells after 9 days by MTT assay. To be noted: HepG2 2.2.15, 216 h. Type of experiment: functional.
Experiment [2] relates to Hepatitis B virus. Description: Antiviral activity against Hepatitis B virus infected in human HepG2.2.15 cells assessed as inhibition of HBsAg secretion at 5 uM after 9 days by ELISA relative to control. The experiment is classed as functional. Particulars: HepG2.2.15, 216 h.
The test system of experiment [3] is Hepatitis B virus. The experiment in a line: Antiviral activity against Hepatitis B virus infected in human HepG2.2.15 cells assessed as intracellular HBV DNA levels at 20 uM measured on day 6 by FQ-PCR analysis. The experiment is classed as functional. To be noted: HepG2.2.15, 144 h.
The subject of experiment [4] is Hepatitis B virus. Description: Antiviral activity against Hepatitis B virus infected in human HepG2.2.15 cells assessed as inhibition of HBeAg secretion at 20 uM after 9 days by ELISA relative to control. The experiment is classed as functional. To be noted: HepG2.2.15, 216 h.
For experiment [5], the system named is Hepatitis B virus. The experiment in a line: Antiviral activity against Hepatitis B virus infected in human HepG2.2.15 cells assessed as inhibition of intracellular HBV DNA level at 20 uM measured on day 9 by FQ-PCR analysis. Particulars: HepG2.2.15, 216 h. Type of experiment: functional.
The subject of experiment [6] is Hepatitis B virus. Description: Antiviral activity against Hepatitis B virus harboring rtV173L/L180M/M204V mutant infected in HepGRL1 cells assessed as inhibition of intracellular HBV DNA level at 20 uM measured on day 9 by FQ-PCR analysis relative to control. Type of experiment: functional. Particulars: 216 h.
In experiment [7] the test system is Duck hepatitis B virus. The experiment in a line: Antiviral activity against DHBV infected in duck assessed as inhibition of viral DNA level in liver at 10 mg/kg, po administered once daily measured on day 15 by SYBR Green I dye-based FQ-PCR analysis relative to control. Type of experiment: functional. To be noted: 360 h.
Experiment [8] concerns Duck hepatitis B virus. Description: Antiviral activity against DHBV infected in duck assessed as inhibition of viral DNA level in serum at 10 mg/kg, po administered once daily measured on day 10 by SYBR Green I dye-based FQ-PCR analysis relative to control. The experiment is classed as functional. Particulars: 240 h.
The subject of experiment [9] is Hepatitis B virus. The experiment in a line: Antiviral activity against Hepatitis B virus infected in human HepG2.2.15 cells assessed as inhibition of HBsAg secretion at 20 uM after 9 days by ELISA relative to control. Type of experiment: functional. To be noted: HepG2.2.15, 216 h.
Experiment [10] concerns Hepatitis B virus. Description: Antiviral activity against Hepatitis B virus harboring rtV173L/L180M/M204V mutant infected in HepGRL1 cells assessed as inhibition of intracellular HBV DNA level at 20 uM measured on day 6 by FQ-PCR analysis relative to control. The experiment is classed as functional. To be noted: 144 h.
Experiment [11] deals with Duck hepatitis B virus. The experiment in a line: Antiviral activity against DHBV infected in duck assessed as inhibition of viral DNA level in liver at 10 mg/kg, po administered once daily measured on day 10 by SYBR Green I dye-based FQ-PCR analysis relative to control. Particulars: 240 h. Type of experiment: functional.
Experiment [12] concerns Duck hepatitis B virus. The experiment in a line: Antiviral activity against DHBV infected in duck assessed as inhibition of viral DNA level in serum at 10 mg/kg, po administered once daily measured on day 15 by SYBR Green I dye-based FQ-PCR analysis relative to control. Type of experiment: functional. Particulars: 360 h.
The subject of experiment [13] is Human immunodeficiency virus 1. The experiment in a line: Antiviral activity against HIV1 infected in human C8166 cells assessed as reduction in viral infection by measuring inhibition of syncytia formation incubated for 3 to 7 days by p24 detection based ELISA. The experiment is classed as functional, organism-based. Particulars: Human immunodeficiency virus 1, C8166.

Bounds are passed on as bounds.

With `[N-]=[N+]=N[C@]1(CO)O[C@@H](n2cc(-c3nnn[nH]3)nn2)[C@@H](F)[C@@H]1O`, the inhibition at 5 µM with Hepatitis B virus [1] worked out at 20%; in the experiment with Hepatitis B virus [2] it was 40%. The CC50 with HepG2 2.2.15 was > 1000 µM.

Regarding `[N-]=[N+]=N[C@]1(CO)O[C@@H](n2cc(C3CC3)nn2)[C@@H](F)[C@@H]1O`, the inhibition at 5 µM amounted to 26.2% in the experiment with Hepatitis B virus [1] and 28.9% with Hepatitis B virus [2]. Besides, the CC50 in the experiment with HepG2 2.2.15 is > 1000 µM.

Regarding `COC(=O)c1cn([C@@H]2O[C@@](CO)(N=[N+]=[N-])[C@@H](O)[C@@H]2F)nn1`, the values for the inhibition at 5 µM in the experiment with Hepatitis B virus [1] and in the experiment on Hepatitis B virus [2] were 12.3% and 22%, respectively. In the experiment on HepG2 2.2.15, this compound displayed a half-maximal cytotoxic concentration (CC50) of 115 µM.

Consider `Nc1ccn([C@@H]2CS[C@H](CO)O2)c(=O)n1` [LAMIVUDINE], for which the inhibition at 20 µM in the experiment with Hepatitis B virus [3] was 75.4%; in the experiment on Hepatitis B virus [4], 22.1%; with Hepatitis B virus [5], 85.7%; in the experiment with Hepatitis B virus [6] it was 12.9%; in the experiment on Hepatitis B virus [9], 47.7%; in the experiment on Hepatitis B virus [10] it was 10.8%. Also, the cytotoxic concentration (CC50) in the experiment with HepG2 2.2.15 is > 1000 µM. The inhibition in vivo at 10 mg/kg stood at 75.6% in the experiment on Duck hepatitis B virus [7], 65.2% in the experiment on Duck hepatitis B virus [8], 57.1% with Duck hepatitis B virus [11] and 85.7% with Duck hepatitis B virus [12].

For `[N-]=[N+]=N[C@]1(CO)O[C@@H](n2ccc(N)nc2=O)[C@@H](F)[C@@H]1O` [RO-0622], the concentration giving a half-maximal response (EC50) in experiment [13] was 0.0003 µM.
